In assay [1] the target is T1, Mitogen-activated protein kinase kinase kinase 2 (Homo sapiens) (UniProt Q9Y2U5).
T1 sequence (whole entry): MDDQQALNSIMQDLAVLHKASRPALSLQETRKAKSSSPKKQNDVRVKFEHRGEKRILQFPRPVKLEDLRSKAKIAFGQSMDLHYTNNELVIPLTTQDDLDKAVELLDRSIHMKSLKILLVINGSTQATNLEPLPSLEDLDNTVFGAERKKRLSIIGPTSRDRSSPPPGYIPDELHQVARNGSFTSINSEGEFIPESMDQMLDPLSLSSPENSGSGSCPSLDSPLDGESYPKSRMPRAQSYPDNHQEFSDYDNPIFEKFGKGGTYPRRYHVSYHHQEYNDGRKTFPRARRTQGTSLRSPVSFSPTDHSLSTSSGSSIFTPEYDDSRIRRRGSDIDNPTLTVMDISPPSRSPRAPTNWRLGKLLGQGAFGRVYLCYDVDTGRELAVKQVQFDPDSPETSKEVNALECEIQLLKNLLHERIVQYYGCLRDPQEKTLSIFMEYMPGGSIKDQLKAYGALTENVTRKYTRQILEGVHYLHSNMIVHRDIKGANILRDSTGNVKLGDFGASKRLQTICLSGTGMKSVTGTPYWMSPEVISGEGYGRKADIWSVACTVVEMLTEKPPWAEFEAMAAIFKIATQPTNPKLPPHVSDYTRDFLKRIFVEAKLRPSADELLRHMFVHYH
In words: Inhibition of human recombinant MAP3K2 at 40 nM in presence of ATP by radiometric assay relative to control.

Assay [2] addresses Proto-oncogene tyrosine-protein kinase ROS (Homo sapiens) (UniProt P08922). In words: Inhibition of human recombinant ROS at 40 nM in presence of ATP by radiometric assay relative to control.
Assay [3] has as its target Tyrosine-protein kinase JAK2 (Homo sapiens) (UniProt O60674). In words: Inhibition of human recombinant JAK2 at 500 nM in presence of ATP by radiometric assay relative to control.
Assay [4] concerns the target Serine/threonine-protein kinase SIK1 (Homo sapiens) (UniProt P57059). The assay is described as follows: Inhibition of human recombinant SIK at 500 nM in presence of ATP by radiometric assay relative to control.
For assay [5], the target named is Serine/threonine-protein kinase PLK1 (Homo sapiens) (UniProt P53350). The assay is described as follows: Inhibition of human recombinant PLK1 at 15 nM in presence of ATP by radiometric assay relative to control.
Sequence of Serine/threonine-protein kinase PLK1 (Homo sapiens) (P53350 whole entry): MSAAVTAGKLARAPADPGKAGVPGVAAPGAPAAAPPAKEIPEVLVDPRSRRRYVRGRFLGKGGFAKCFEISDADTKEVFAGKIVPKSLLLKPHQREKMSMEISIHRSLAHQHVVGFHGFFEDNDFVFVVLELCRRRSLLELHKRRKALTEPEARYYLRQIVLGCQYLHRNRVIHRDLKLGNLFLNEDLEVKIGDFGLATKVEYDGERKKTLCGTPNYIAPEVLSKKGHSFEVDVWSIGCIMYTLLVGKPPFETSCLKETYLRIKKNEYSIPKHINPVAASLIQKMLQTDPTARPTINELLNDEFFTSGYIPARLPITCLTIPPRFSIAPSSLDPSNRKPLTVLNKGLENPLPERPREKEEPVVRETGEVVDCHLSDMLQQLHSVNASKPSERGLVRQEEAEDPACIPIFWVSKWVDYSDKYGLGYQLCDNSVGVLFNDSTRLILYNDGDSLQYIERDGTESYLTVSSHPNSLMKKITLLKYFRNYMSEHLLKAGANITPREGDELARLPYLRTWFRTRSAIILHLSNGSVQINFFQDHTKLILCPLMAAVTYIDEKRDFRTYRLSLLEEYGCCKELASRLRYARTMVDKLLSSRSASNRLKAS
The target in assay [6] is Serine/threonine-protein kinase 35 (Homo sapiens) (UniProt Q8TDR2). In words: Inhibition of human recombinant CLIK1 at 15 nM related to control ULK1.
Sequence of Serine/threonine-protein kinase 35 (Homo sapiens) (Q8TDR2 whole entry): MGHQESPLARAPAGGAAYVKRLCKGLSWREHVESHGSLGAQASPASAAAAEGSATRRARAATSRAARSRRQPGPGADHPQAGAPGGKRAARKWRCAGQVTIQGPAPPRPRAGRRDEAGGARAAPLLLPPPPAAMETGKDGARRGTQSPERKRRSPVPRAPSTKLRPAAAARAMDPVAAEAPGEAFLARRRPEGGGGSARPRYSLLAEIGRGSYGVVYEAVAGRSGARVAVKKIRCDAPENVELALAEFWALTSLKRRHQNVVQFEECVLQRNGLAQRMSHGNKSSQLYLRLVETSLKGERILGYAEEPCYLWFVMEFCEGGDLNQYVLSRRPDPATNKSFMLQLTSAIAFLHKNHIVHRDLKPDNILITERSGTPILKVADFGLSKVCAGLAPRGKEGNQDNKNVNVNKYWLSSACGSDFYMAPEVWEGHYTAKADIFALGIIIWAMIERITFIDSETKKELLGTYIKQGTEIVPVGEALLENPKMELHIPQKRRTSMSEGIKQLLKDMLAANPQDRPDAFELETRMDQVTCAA
The target in assay [7] is T2, Ephrin type-B receptor 2 (Homo sapiens) (UniProt P29323).
T2 sequence (whole entry): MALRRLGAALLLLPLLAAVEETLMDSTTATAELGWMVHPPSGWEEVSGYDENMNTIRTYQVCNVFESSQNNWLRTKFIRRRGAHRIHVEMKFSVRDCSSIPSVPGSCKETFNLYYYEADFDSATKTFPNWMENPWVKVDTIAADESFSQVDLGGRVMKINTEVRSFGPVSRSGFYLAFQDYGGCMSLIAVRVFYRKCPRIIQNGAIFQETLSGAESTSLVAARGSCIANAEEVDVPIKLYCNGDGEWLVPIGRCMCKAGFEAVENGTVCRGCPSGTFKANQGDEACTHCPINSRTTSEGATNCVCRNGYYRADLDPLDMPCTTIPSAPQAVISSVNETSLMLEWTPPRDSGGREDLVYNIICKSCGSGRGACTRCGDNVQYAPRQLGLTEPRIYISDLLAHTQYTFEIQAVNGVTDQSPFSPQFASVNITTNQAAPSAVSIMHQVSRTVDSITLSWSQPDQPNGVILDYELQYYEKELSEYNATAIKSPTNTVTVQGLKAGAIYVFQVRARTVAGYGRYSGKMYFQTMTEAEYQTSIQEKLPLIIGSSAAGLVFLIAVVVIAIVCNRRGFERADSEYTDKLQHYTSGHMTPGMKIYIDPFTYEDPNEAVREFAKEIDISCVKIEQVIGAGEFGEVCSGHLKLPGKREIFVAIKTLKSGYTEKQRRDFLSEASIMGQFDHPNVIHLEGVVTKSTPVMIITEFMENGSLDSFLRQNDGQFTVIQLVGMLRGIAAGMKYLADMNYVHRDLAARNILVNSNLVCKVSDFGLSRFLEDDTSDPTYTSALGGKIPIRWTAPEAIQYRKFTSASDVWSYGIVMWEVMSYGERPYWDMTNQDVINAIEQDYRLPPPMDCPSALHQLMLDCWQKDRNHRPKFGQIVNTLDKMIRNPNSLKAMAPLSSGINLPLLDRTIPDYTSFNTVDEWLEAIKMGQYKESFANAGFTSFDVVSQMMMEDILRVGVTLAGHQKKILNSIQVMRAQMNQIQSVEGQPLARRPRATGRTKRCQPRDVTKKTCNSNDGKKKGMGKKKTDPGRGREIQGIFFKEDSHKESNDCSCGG
In words: Inhibition of human recombinant EphB2 at 15 nM related to control ULK1.

Assay [8] has as its target T3, Serine/threonine-protein kinase haspin (Homo sapiens) (UniProt Q8TF76).
T3 sequence (whole entry): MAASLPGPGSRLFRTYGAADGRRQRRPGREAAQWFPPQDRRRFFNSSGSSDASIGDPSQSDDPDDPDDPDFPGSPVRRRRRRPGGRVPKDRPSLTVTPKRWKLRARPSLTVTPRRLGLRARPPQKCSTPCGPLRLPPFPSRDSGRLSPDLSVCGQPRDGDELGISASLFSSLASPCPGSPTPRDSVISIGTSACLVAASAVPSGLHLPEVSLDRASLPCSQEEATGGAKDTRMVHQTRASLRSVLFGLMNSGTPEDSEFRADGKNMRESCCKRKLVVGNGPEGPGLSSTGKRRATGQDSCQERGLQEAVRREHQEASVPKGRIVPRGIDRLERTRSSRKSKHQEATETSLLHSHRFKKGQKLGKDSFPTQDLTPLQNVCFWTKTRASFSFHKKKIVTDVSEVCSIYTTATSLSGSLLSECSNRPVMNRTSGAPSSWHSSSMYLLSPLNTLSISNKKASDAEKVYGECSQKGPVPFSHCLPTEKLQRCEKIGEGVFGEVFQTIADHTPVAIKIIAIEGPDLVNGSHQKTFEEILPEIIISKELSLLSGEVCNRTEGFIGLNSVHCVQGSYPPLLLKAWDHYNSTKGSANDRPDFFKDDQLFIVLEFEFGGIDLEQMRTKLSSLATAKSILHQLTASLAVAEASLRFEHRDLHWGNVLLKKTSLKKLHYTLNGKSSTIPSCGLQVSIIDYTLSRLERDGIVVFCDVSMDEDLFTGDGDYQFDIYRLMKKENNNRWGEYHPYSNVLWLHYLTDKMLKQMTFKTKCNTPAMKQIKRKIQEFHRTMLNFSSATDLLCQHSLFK
The assay is described as follows: Inhibition of human recombinant Haspin at 15 nM related to control ULK1.

Sequence of Tyrosine-protein kinase JAK2 (Homo sapiens) (O60674 whole entry): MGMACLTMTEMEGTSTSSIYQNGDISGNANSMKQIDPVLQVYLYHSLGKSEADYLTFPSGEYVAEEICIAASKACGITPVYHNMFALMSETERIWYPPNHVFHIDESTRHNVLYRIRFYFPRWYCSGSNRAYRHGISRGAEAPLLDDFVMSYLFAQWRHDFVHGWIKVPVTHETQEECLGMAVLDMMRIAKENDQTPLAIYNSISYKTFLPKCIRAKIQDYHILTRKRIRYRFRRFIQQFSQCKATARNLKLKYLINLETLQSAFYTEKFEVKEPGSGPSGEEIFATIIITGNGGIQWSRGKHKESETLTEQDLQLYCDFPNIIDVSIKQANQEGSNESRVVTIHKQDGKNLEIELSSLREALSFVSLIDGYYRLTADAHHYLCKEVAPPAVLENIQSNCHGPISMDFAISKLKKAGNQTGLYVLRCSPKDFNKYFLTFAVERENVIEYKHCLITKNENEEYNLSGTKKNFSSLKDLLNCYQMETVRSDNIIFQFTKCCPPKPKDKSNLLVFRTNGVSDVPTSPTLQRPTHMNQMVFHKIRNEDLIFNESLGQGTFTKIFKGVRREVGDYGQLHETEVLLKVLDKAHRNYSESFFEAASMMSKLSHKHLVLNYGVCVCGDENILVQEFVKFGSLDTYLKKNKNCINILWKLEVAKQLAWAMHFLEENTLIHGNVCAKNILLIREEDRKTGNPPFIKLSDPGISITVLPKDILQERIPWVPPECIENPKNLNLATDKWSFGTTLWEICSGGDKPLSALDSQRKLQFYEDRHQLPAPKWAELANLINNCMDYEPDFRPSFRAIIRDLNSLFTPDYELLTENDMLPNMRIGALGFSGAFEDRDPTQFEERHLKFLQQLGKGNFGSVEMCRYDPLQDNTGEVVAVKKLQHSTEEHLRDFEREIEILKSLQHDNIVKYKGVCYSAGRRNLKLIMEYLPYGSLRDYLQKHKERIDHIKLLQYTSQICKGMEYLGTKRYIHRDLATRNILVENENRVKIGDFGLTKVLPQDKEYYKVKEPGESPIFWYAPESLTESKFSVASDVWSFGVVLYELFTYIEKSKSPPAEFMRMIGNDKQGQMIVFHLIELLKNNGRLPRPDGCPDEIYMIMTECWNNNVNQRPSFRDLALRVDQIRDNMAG
Sequence of Serine/threonine-protein kinase SIK1 (Homo sapiens) (P57059 whole entry): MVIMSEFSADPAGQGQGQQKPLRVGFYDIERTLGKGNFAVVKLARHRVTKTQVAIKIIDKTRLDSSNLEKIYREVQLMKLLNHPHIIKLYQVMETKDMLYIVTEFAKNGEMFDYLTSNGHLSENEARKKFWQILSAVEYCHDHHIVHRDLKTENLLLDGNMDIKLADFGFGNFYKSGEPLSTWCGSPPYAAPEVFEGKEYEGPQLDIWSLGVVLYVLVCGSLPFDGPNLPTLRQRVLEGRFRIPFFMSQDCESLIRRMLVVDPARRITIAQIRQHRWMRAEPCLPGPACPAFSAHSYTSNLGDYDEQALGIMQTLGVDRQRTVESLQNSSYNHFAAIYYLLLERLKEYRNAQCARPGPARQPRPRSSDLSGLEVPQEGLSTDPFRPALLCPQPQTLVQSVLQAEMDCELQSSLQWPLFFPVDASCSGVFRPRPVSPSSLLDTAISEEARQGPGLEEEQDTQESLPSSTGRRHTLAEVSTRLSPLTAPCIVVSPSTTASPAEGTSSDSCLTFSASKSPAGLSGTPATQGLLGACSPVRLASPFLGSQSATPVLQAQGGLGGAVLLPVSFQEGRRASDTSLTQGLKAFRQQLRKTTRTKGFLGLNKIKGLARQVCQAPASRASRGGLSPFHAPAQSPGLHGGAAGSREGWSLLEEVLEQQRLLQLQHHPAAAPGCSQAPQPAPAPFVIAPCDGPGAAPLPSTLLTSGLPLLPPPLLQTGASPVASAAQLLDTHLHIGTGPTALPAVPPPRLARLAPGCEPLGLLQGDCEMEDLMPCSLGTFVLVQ

Turning to `O=C(N[C@@H](C1CC1)C(F)(F)F)c1cc(-c2cnn3cc(-c4ccc(F)cc4)cnc23)cs1`, the inhibition in assay [1] and in assay [2] was 0% each time.
`CNC(=O)c1ccccc1Oc1nc(Nc2cc(OC)c(OC)c(OC)c2)ncc1Br`: the inhibition in assay [3] is 78%; in assay [4], 20%.
Turning to `CC(C)[C@H](NC(=O)c1cc(-c2cnn3cc(-c4ccc(OCCN5CCCCC5)cc4)cnc23)cs1)C(F)(F)F`, the inhibition in assay [5] worked out at 1%. Further, the fold change (FC) was 0.1 in assay [6], 0.08 in assay [7] and 0 in assay [8].

The inhibition is the share of the control response that was lost under treatment.

Source of the values: ChEMBL document CHEMBL5653631, “A Potent and Selective ULK1 Inhibitor Suppresses Autophagy and Sensitizes Cancer Cells to Nutrient Stress” (iScience, 2018).
